Measured values published in publication PMC12724303 (Journal of Virology, 2025).
Where two headings read alike, the source gives them in different places.

Key:
[1] = system: SARS-CoV-2 Wuhan variant; test: microbe, parasite or virus in culture; assay type: cell-based
[2] = system: SARS-CoV-2 Delta variant; assay type: cell-based
[3] = system: SARS-CoV-2 Wuhan variant; assay type: cell-based
[4] = system: SARS-CoV-2 virion-associated aminophospholipids (procoagulant activity); assay type: biochemical
[5] = system: SARS-CoV-2 Wuhan variant in Vero E6 cells; assay type: cell-based
[6] = system: SARS-CoV-2 Wuhan variant; assay type: cell-based; remark: listed apart in the source
[7] = system: SARS-CoV-2 Beta variant; assay type: cell-based
[8] = system: SARS-CoV-2 Wuhan variant virions
[9] = system: SARS-CoV-2 viral particles; assay type: cell-based
[10] = system: SARS-CoV-2 Wuhan variant in Vero E6/TMPRSS2 cells; assay type: cell-based
[11] = system: SARS-CoV-2 Wuhan variant particles (N protein and spike protein)

Row | Molecule | selectivity index (SI = CC50/IC50) [1] | IC50 ([1]; Severe acute respiratory syndrome coronavirus 2, VeroE6/TMPRSS2, 72 h, read-out: IC50 against SARS-CoV-2 infection) | infection inhibitory activity (cytopathic effect) [2] | infection inhibitory activity (cytopathic effect) [3] | effect on clotting time ([4]; 5 mM) | reduction in TCID50/mL compared with the control [5] | intracellular SARS-CoV-2 gRNA level (viral entry) [6] | viral entry [6] | concentration at the highest dilution completely inhibiting the cytopathic effect [7] | highest dilution completely inhibiting the cytopathic effect [7] | binding of viral particles to anti-RBD antibody-coated plate (RNA quantification) [8] | reduction of infectivity by pretreatment of viral particles [9] | infectivity of treated virus [10] | concentration at the highest dilution completely inhibiting the cytopathic effect [2] | highest dilution completely inhibiting the cytopathic effect [2] | band intensities of N protein and spike protein [11] | concentration at the highest dilution completely inhibiting the cytopathic effect [3] | highest dilution completely inhibiting the cytopathic effect [3] | effect on clotting time [4] | effect on clotting time ([4]; 10 mM, 37°C)
1 | COC[C@H]1O[C@@H]2O[C@H]3[C@H](O)[C@@H](OC)[C@@H](O[C@H]4[C@H](O)[C@@H](OC)[C@@H](O[C@H]5[C@H](O)[C@@H](OC)[C@@H](O[C@H]6[C@H](O)[C@@H](OC)[C@@H](O[C@H]7[C@H](O)[C@@H](OC)[C@@H](O[C@H]8[C@H](O)[C@@H](OC)[C@@H](O[C@H]1[C@H](O)[C@H]2OC)O[C@@H]8COC)O[C@@H]7COC)O[C@@H]6COC)O[C@@H]5COC)O[C@@H]4COC)O[C@@H]3COC [DM-β-CyD, 2,6-di-O-methyl-β-cyclodextrin] | 4.04 | 1420 µM | showed infection inhibitory activity | showed infection inhibitory activity | no effect on clotting time |  |  |  |  |  |  |  |  |  |  |  |  |  |  | 
2 | COC[C@H]1O[C@@H]2O[C@H]3[C@H](OC(C)=O)[C@@H](OC)[C@@H](O[C@H]4[C@H](OC(C)=O)[C@@H](OC)[C@@H](O[C@H]5[C@H](OC(C)=O)[C@@H](OC)[C@@H](O[C@H]6[C@H](OC(C)=O)[C@@H](OC)[C@@H](O[C@H]7[C@H](OC(C)=O)[C@@H](OC)[C@@H](O[C@H]8[C@H](OC(C)=O)[C@@H](OC)[C@@H](O[C@H]1[C@H](OC(C)=O)[C@H]2OC)O[C@@H]8COC)O[C@@H]7COC)O[C@@H]6COC)O[C@@H]5COC)O[C@@H]4COC)O[C@@H]3COC [DMA-β-CyD] |  |  | showed infection inhibitory activity | showed infection inhibitory activity |  | 2.22 | decreased in a DMA-β-CyD-concentration-dependent manner | inhibited the entry of these particles | 625 µM | 16 fold | concentration-dependent decrease in binding | 2.25–2.67 | 7.34 × 10^3 TCID50/mL | 156 µM | 64 fold | marked reduction in the band intensities of both proteins | 156 µM | 64 fold | insufficient recovery of clotting time | markedly prolonged clotting time
3 | hydroxypropyl-α-cyclodextrin [HP-α-CyD] |  |  |  | showed infection inhibitory activity |  |  |  |  |  |  |  |  |  |  |  |  |  |  |  | 
